Experimental data as given in ChEMBL document CHEMBL1201862, “PubChem BioAssay data set” (2004).
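96-well plates; 48 h exposure; 5 concentrations. Endpoints by linear interpolation between flanking doses. Not reached: highest tested concentration assigned. GI50 = concentration required for 50% inhibition of growth.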 The source made the active and inactive calls. No stated cut-off is given here; in the data, active = GI50 up to about 1.1 µM and inactive = higher.

How the values were obtained:
Experiment in all cases: NCI anticancer screen, dose series, 48 h
CAKI-1 = test system: CAKI-1
K562 = test system: K562
SW-620 = test system: SW-620
SK-MEL-2 = test system: SK-MEL-2
HCT-15 = test system: HCT-15
HOP-62 = test system: HOP-62
RXF 393 = test system: RXF 393
HL-60 = test system: HL-60
COLO 205 = test system: COLO 205
M14 = test system: M14
Malme-3M = test system: Malme-3M
SN12C = test system: SN12C
SF-295 = test system: SF-295
SK-MEL-28 = test system: SK-MEL-28
NCI-H522 = test system: NCI-H522
BT-549 = test system: BT-549
LOX IMVI = test system: LOX IMVI
NCI-H460 = test system: NCI-H460
KM12 = test system: KM12
HCC 2998 = test system: HCC 2998
UACC-257 = test system: UACC-257
SF-268 = test system: SF-268
SR = test system: SR
U-251 = test system: U-251
PC-3 = test system: PC-3
UO-31 = test system: UO-31
MDA-MB-231 = test system: MDA-MB-231
CCRF-CEM = test system: CCRF-CEM
OVCAR-4 = test system: OVCAR-4
IGROV-1 = test system: IGROV-1
UACC-62 = test system: UACC-62
NCI-H23 = test system: NCI-H23
MCF7 = test system: MCF7
A498 = test system: A498
NCI-H226 = test system: NCI-H226
OVCAR-5 = test system: OVCAR-5
SF-539 = test system: SF-539
ACHN = test system: ACHN
MOLT-4 = test system: MOLT-4
RPMI-8226 = test system: RPMI-8226
NCI/ADR-RES = test system: NCI/ADR-RES
EKVX = test system: EKVX
SK-OV-3 = test system: SK-OV-3
SK-MEL-5 = test system: SK-MEL-5
OVCAR-8 = test system: OVCAR-8
HCT-116 = test system: HCT-116
T47D = test system: T47D
HOP-92 = test system: HOP-92
OVCAR-3 = test system: OVCAR-3
MDA-MB-435 = test system: MDA-MB-435
SNB-19 = test system: SNB-19
786-0 = test system: 786-0
SNB-75 = test system: SNB-75
Hs-578T = test system: Hs-578T
HT-29 = test system: HT-29
DU-145 = test system: DU-145
TK-10 = test system: TK-10
A549 = test system: A549
MDA-N = test system: MDA-N

Measured: GI50

O=C1CCCCc2cccc(O)c21
> 100 µM: HCT-15
inactive: CAKI-1 > 100 µM | K562 > 100 µM | SW-620 > 100 µM | SK-MEL-2 > 100 µM | HOP-62 > 100 µM | RXF 393 > 100 µM | HL-60 > 100 µM | COLO 205 > 100 µM | M14 > 100 µM | Malme-3M > 100 µM | SN12C > 100 µM | SF-295 > 100 µM | SK-MEL-28 > 100 µM | NCI-H522 > 100 µM | BT-549 > 100 µM | LOX IMVI > 100 µM | NCI-H460 > 100 µM | KM12 > 100 µM | HCC 2998 > 100 µM | UACC-257 > 100 µM | SF-268 > 100 µM | SR > 100 µM | U-251 > 100 µM | PC-3 > 100 µM | UO-31 > 100 µM | MDA-MB-231 > 100 µM | CCRF-CEM > 100 µM | OVCAR-4 > 100 µM | IGROV-1 > 100 µM | UACC-62 > 100 µM | NCI-H23 > 100 µM | MCF7 > 100 µM | A498 > 100 µM | NCI-H226 > 100 µM | OVCAR-5 > 100 µM | SF-539 > 100 µM | ACHN > 100 µM | MOLT-4 > 100 µM | RPMI-8226 > 100 µM | NCI/ADR-RES > 100 µM | EKVX > 100 µM | SK-OV-3 > 100 µM | SK-MEL-5 > 100 µM | OVCAR-8 > 100 µM | HCT-116 > 100 µM | T47D > 100 µM | HOP-92 > 100 µM | OVCAR-3 > 100 µM | MDA-MB-435 > 100 µM | SNB-19 > 100 µM | 786-0 > 100 µM | SNB-75 > 100 µM | Hs-578T > 100 µM | HT-29 > 100 µM | DU-145 > 100 µM | TK-10 > 100 µM

O=C(O)c1c(CC(Cc2ccc3c(c2)CCC3)C(=O)O)ccc2c1CCC2 (stereo not given)
inactive: CAKI-1 > 100 µM | K562 > 100 µM | SW-620 > 100 µM | SK-MEL-2 > 100 µM | HOP-62 > 100 µM | HL-60 > 100 µM | COLO 205 > 100 µM | M14 > 100 µM | Malme-3M > 100 µM | SN12C > 100 µM | SF-295 > 100 µM | SK-MEL-28 > 100 µM | NCI-H522 > 100 µM | BT-549 > 100 µM | LOX IMVI > 100 µM | NCI-H460 > 100 µM | KM12 > 100 µM | HCC 2998 > 100 µM | UACC-257 > 100 µM | SR > 100 µM | U-251 > 100 µM | PC-3 > 100 µM | UO-31 > 100 µM | MDA-MB-231 > 100 µM | CCRF-CEM > 100 µM | OVCAR-4 > 100 µM | IGROV-1 > 100 µM | NCI-H23 > 100 µM | MCF7 > 100 µM | A498 > 100 µM | NCI-H226 > 100 µM | OVCAR-5 > 100 µM | SF-539 > 100 µM | ACHN > 100 µM | MOLT-4 > 100 µM | RPMI-8226 > 100 µM | NCI/ADR-RES > 100 µM | EKVX > 100 µM | SK-MEL-5 > 100 µM | OVCAR-8 > 100 µM | A549 > 100 µM | HCT-116 > 100 µM | HOP-92 > 100 µM | OVCAR-3 > 100 µM | MDA-N > 100 µM | MDA-MB-435 > 100 µM | SNB-19 > 100 µM | 786-0 > 100 µM | Hs-578T > 100 µM | HT-29 > 100 µM | DU-145 > 100 µM | TK-10 > 100 µM
> 100 µM: HCT-15
